Test results: publication PMC12655637, “Design, Synthesis, and Mechanistic Study of Novel Ciprofloxacin/Thiazole Chalcone Hybrids as Potential Anticancer Agents” (Pharmaceuticals, 2025)

Tests used:
CCRF-CEM = assay: NCI-60 screening, one-dose (10 µM) and five-dose, SRB; assay type: cell-based, human
K-562 = assay: as above; assay type: cell-based, human; conditions: five-dose, K-562
MOLT-4 = assay: as above; assay type: cell-based, human
RPMI-8226 = assay: as above; assay type: cell-based, human; conditions: RPMI-8226
A549/ATCC = assay: as above; assay type: cell-based, human
HOP-92 = assay: as above; assay type: cell-based, human
NCI-H226 = assay: as above; assay type: cell-based, human
NCI-H322M = assay: as above; assay type: cell-based, human
COLO 205 = assay: as above; assay type: cell-based, human
HCT-116 = assay: as above; assay type: cell-based, human; conditions: Homo sapiens
HCT-15 = assay: as above; assay type: cell-based, human
SF-268 = assay: as above; assay type: cell-based, human
SF-295 = assay: as above; assay type: cell-based, human
SF-539 = assay: as above; assay type: cell-based, human
SNB-75 = assay: as above; assay type: cell-based, human
U251 = assay: as above; assay type: cell-based, human
MALME-3M = assay: as above; assay type: cell-based, human
SK-MEL-2 = assay: as above; assay type: cell-based, human
SK-MEL-28 = assay: as above; assay type: cell-based, human
UACC-257 = assay: as above; assay type: cell-based, human
UACC-62 = assay: as above; assay type: cell-based
IGROV1 = assay: as above; assay type: cell-based, human
OVCAR-4 = assay: as above; assay type: cell-based, human
OVCAR-8 = assay: as above; assay type: cell-based, human
NCI/ADR-RES = assay: as above; assay type: cell-based, human
786−0 = assay: as above; assay type: cell-based, human
RXF 393 = assay: as above; assay type: cell-based; conditions: Homo sapiens; 10 μM; RXF 393, Renal Cancer; read-out: Growth percentage
MCF7 = assay: as above; assay type: cell-based, human
[1] = test system: colon HCT116 cancer cell line; assay: Cell cycle analysis, propidium iodide flow cytometry
Method: The effect of compounds 4b and 4d on the cell cycle progression of the colon HCT-116 cell line was evaluated using a Propidium Iodide Flow Cytometry Kit to measure the DNA content, as per the reported protocols [39].
Cell cycle analysis and measurement of apoptotic potential
The effect of compound 4b and 4d on cell cycle progression of colon HCT-116 cell line was evaluated using Propidium Iodide Flow Cytometry Kit to measure the DNA content according to the reported protocols. The HCT116 cells used in this work were obtained from the American Type Culture Collection. Cells were cultured in DMEM (Invitrogen/Life Technologies) supplemented with 10% FBS (Hyclone), 10 µg/ml insulin (Sigma), and 1% penicillin-streptomycin. The remaining chemicals and reagents were all from Sigma or Invitrogen. Growth media was removed, cells washed with warm PBS and aspirated. Adhered cells were detached from media by addition of 5 ml 10% trypsin/EDTA and incubated 2 minutes in the incubator. The suspended cells harvested, aspirated to a falcon tube, centrifuged at 2000 rpm for 5 minutes. Cell count performed after suspending the cells into a fresh media and stained with trypan blue, counted and used for preparation of the appropriate number of cells.

[2] = test system: 60 human cancer cell lines; assay: NCI-60 screening, full panel (mean growth, MID a, ranges over all lines)
Method: The screening was performed in accordance with the protocols set forth by the Drug Evaluation Department of the National Cancer Institute (NCI), Bethesda, USA, for in vitro anticancer efficacy at a single concentration of 10 µM against a panel of 60 cancer cell lines derived from nine distinct organs (https://dctd.cancer.gov/data-tools-biospecimens/data (accessed on 15 March 2023 and 6 January 2024)) [37].
The log10 GI50, log10 TGI, and log10 LC50 values were subsequently calculated as the averages of the log10 values of the respective individual GI50, TGI, and LC50 measurements. Negative numbers signified the most sensitive cell lines.
One way to measure a compound’s selectivity is to divide its subpanel MID^b (in μM) by the MID^a (in μM), which is the average sensitivity of all cell lines to the test agent.
At the National Cancer Institute (NCI) in Bethesda, USA, researchers examined the anticancer potential of the target compounds under investigation using nine panels of sixty different cell lines obtained from nine different cancers that were housed in the NCI library. Following the protocols laid out by the National Cancer Institute (https://dctd.cancer.gov/data-tools-biospecimens/data (accessed on 15 March 2023 and 6 January 2024)), the screening procedures were carried out [37]. The anticancer screening was carried out at a single dose of 10^−5 M; the results obtained were expressed as growth inhibition (%).
The anti-cancer potential of the tested compounds was evaluated at the National cancer institute (NCI), Bethesda, USA, against 9 panels of 60 various cell lines derived from nine human tumours available usually at NCI library. The procedures for the screening were described in details in NCI website (dttp://www.dtp.nci.nih.gov.) and were done according to NCI protocols. The anticancer screening was carried out at single dose of 10^-5 M. The results obtained as growth inhibition (%).
Cell lines were grown in Roswell Park Memorial Institute medium (RPMI) with 5% fetal bovine serum and 2% μM L-glutamine. Cancer cells are inoculated into 96 well microtiter plates in 100 μL at plating densities ranging from 5000 to 40,000 cells/well depending on the doubling time of individual cell lines. Then microtiter plates are incubated at 37 °C, 5% CO2, 95% air and 100% relative humidity for 24 h prior to the addition of the tested compounds. After 24 h, two plates of each cell line are fixed in situ with trichloroacetic acid (TCA). The tested compounds were dissolved in dimethyl sulfoxide (DMSO) and stored in the freezer prior to use. An aliquot of frozen drug concentrate is diluted to the desired concentration with complete medium containing 50 μg/mL gentamicin.

[3] = Homo sapiens, five-dose, read-out: LC50 (the source's name)
[4] = Homo sapiens, five-dose, MOLT-4
[5] = Homo sapiens, five-dose, HOP-92
[6] = Homo sapiens, five-dose, NCI-H226
[7] = Homo sapiens, five-dose, COLO 205
[8] = Homo sapiens, five-dose, HCT-15
[9] = Homo sapiens, five-dose, SF-268
[10] = Homo sapiens, five-dose, SF-295
[11] = Homo sapiens, five-dose, SF-539
[12] = Homo sapiens, five-dose, SNB-75
[13] = Homo sapiens, U-251, five-dose, U251
[14] = Homo sapiens, five-dose, SK-MEL-2
[15] = Homo sapiens, five-dose, SK-MEL-28
[16] = Homo sapiens, five-dose, UACC-257
[17] = Homo sapiens, five-dose, UACC-62
[18] = Homo sapiens, IGROV-1, five-dose, IGROV1
[19] = Homo sapiens, five-dose, OVCAR-4
[20] = Homo sapiens, five-dose, OVCAR-8

## Cc1nc(SCC(=O)N2CCN(c3cc4c(cc3F)c(=O)c(C(=O)O)cn4C3CC3)CC2)sc1C(=O)/C=C/c1cccc(Cl)c1 [Compound 4b, (E)-7-(4-(2-((5-(3-(3-Chlorophenyl)acryloyl)-4-methylthiazol-2-yl)thio)acetyl)piperazin-1-yl)-1-cyclopropyl-6-fluoro-4-oxo-1,4-dihydroquinoline-3-carboxylic Acid]
CCRF-CEM; Homo sapiens, 10 μM, Leukemia, read-out: Growth percentage
  activity at 10 µM: 49.7%
CCRF-CEM; Homo sapiens, five-dose
  GI50: 6.9 µM
  IC50: 11.7 µM
CCRF-CEM; [3]
  CC50: > 100 µM
CCRF-CEM; five-dose
  TGI: 31.6 µM
K-562; Homo sapiens, K562
  GI50: 4.2 µM
  IC50: 4.9 µM
K-562; Homo sapiens, K562, read-out: LC50 (the source's name)
  CC50: > 100 µM
K-562
  TGI: 100.0 µM
MOLT-4; Homo sapiens, 10 μM, MOLT-4, Leukemia, read-out: Growth percentage
  activity at 10 µM: 66.1%
MOLT-4; [4]
  GI50: 12.9 µM
  IC50: 21.9 µM
  LC50 (concentration killing 50% of cells): 56.2 µM
MOLT-4; five-dose, MOLT-4
  TGI: 26.9 µM
RPMI-8226; Homo sapiens, RPMI-8226, five-dose
  IC50: 0.3 µM
RPMI-8226; Homo sapiens, five-dose
  GI50: 0.2 µM
RPMI-8226; [3]
  CC50: 0.6 µM
RPMI-8226; five-dose
  TGI: 0.3 µM
A549/ATCC; Homo sapiens, 10 μM, Non-Small-Cell Lung Cancer, read-out: Growth percentage
  activity at 10 µM: 82.4%
A549/ATCC; Homo sapiens, five-dose
  GI50: > 100 µM
  IC50: > 100 µM
A549/ATCC; [3]
  CC50: > 100 µM
A549/ATCC; five-dose
  TGI: 100.0 µM
HOP-92; Homo sapiens, 10 μM, HOP-92, Non-Small-Cell Lung Cancer, read-out: Growth percentage
  activity at 10 µM: 101%
HOP-92; [5]
  GI50: 44.7 µM
  IC50: > 100 µM
  LC50 (concentration killing 50% of cells): > 100 µM
HOP-92; five-dose, HOP-92
  TGI: 100.0 µM
NCI-H226; Homo sapiens, 10 μM, NCI-H226, Non-Small-Cell Lung Cancer, read-out: Growth percentage
  activity at 10 µM: 80.9%
NCI-H226; [6]
  GI50: > 100 µM
  IC50: > 100 µM
  LC50 (concentration killing 50% of cells): > 100 µM
NCI-H226; five-dose, NCI-H226
  TGI: 100.0 µM
NCI-H322M; 10 μM, Non-Small-Cell Lung Cancer
  Growth percentage: 100.9%
NCI-H322M; Homo sapiens, five-dose
  GI50: > 100 µM
  IC50: > 100 µM
  LC50: > 100 µM
NCI-H322M; five-dose
  TGI: 100.0 µM
COLO 205; Homo sapiens, 10 μM, COLO 205, Colon Cancer, read-out: Growth percentage
  activity at 10 µM: 114%
COLO 205; [7]
  GI50: 4.3 µM
  IC50: 6.2 µM
COLO 205; Homo sapiens, five-dose, COLO 205, read-out: LC50 (the source's name)
  CC50: > 100 µM
COLO 205; five-dose, COLO 205
  TGI: 100.0 µM
HCT-116; HCT-116, 10 μM, HCT-116, Colon Cancer, read-out: Growth percentage
  activity at 10 µM: 2.8%
HCT-116; five-dose, HCT-116
  GI50: 0.2 µM
  IC50: 0.3 µM
HCT-15; Homo sapiens, 10 μM, HCT-15, Colon Cancer, read-out: Growth percentage
  activity at 10 µM: 26.9%
HCT-15; [8]
  IC50: > 100 µM
  LC50 (50% lethal concentration): > 100 µM
HCT-15; five-dose, HCT-15
  TGI: 100.0 µM
SF-268; Homo sapiens, 10 μM, SF-268, CNS Cancer, read-out: Growth percentage
  activity at 10 µM: 76.1%
SF-268; [9]
  GI50: 22.4 µM
  IC50: 53.7 µM
SF-268; Homo sapiens, five-dose, SF-268, read-out: LC50 (the source's name)
  CC50: > 100 µM
SF-268; five-dose, SF-268
  TGI: 93.3 µM
SF-295; Homo sapiens, 10 μM, SF-295, CNS Cancer, read-out: Growth percentage
  activity at 10 µM: 93.3%
SF-295; [10]
  GI50: > 100 µM
  IC50: > 100 µM
SF-295; Homo sapiens, five-dose, SF-295, read-out: LC50 (the source's name)
  CC50: > 100 µM
SF-295; five-dose, SF-295
  TGI: 100.0 µM
SF-539; Homo sapiens, SF-539, 10 μM, SF-539, CNS Cancer, read-out: Growth percentage
  activity at 10 µM: 22.1%
SF-539; [11]
  GI50: 3.7 µM
  IC50: 15.1 µM
SF-539; Homo sapiens, five-dose, SF-539, read-out: LC50 (the source's name)
  CC50: > 100 µM
SF-539; five-dose, SF-539
  TGI: 61.7 µM
SNB-75; Homo sapiens, 10 μM, SNB-75, CNS Cancer, read-out: Growth percentage
  activity at 10 µM: 102%
SNB-75; [12]
  GI50: 28.8 µM
  IC50: > 100 µM
SNB-75; Homo sapiens, five-dose, SNB-75, read-out: LC50 (the source's name)
  CC50: > 100 µM
SNB-75; five-dose, SNB-75
  TGI: 77.6 µM
U251; Homo sapiens, U-251, 10 μM, U251, CNS Cancer, read-out: Growth percentage
  activity at 10 µM: 41.9%
U251; [13]
  GI50: 34.7 µM
  IC50: > 100 µM
U251; Homo sapiens, U-251, five-dose, U251, read-out: LC50 (the source's name)
  CC50: > 100 µM
U251; five-dose, U251
  TGI: 100.0 µM
MALME-3M; 10 μM, Melanoma
  Growth percentage: 143.6%
MALME-3M; Homo sapiens, five-dose
  GI50: > 100 µM
  IC50: > 100 µM
MALME-3M; [3]
  CC50: > 100 µM
MALME-3M; five-dose
  TGI: 100.0 µM
SK-MEL-2; Homo sapiens, 10 μM, SK-MEL-2, Melanoma, read-out: Growth percentage
  activity at 10 µM: 60.8%
SK-MEL-2; [14]
  GI50: 46.8 µM
  IC50: > 100 µM
SK-MEL-2; Homo sapiens, five-dose, SK-MEL-2, read-out: LC50 (the source's name)
  CC50: > 100 µM
SK-MEL-2; five-dose, SK-MEL-2
  TGI: 100.0 µM
SK-MEL-28; Homo sapiens, 10 μM, SK-MEL-28, Melanoma, read-out: Growth percentage
  activity at 10 µM: 84.1%
SK-MEL-28; [15]
  GI50: 26.9 µM
  IC50: 87.1 µM
SK-MEL-28; Homo sapiens, five-dose, SK-MEL-28, read-out: LC50 (the source's name)
  CC50: > 100 µM
SK-MEL-28; five-dose, SK-MEL-28
  TGI: 100.0 µM
UACC-257; Homo sapiens, 10 μM, UACC-257, Melanoma, read-out: Growth percentage
  activity at 10 µM: 77.9%
UACC-257; [16]
  GI50: > 100 µM
  IC50: > 100 µM
UACC-257; Homo sapiens, five-dose, UACC-257, read-out: LC50 (the source's name)
  CC50: > 100 µM
UACC-257; five-dose, UACC-257
  TGI: 100.0 µM
UACC-62; Homo sapiens, 10 μM, UACC-62, Melanoma, read-out: Growth percentage
  activity at 10 µM: 76.3%
UACC-62; [17]
  GI50: 20.9 µM
  IC50: > 100 µM
UACC-62; Homo sapiens, five-dose, UACC-62, read-out: LC50 (the source's name)
  CC50: > 100 µM
UACC-62; five-dose, UACC-62
  TGI: 100.0 µM
IGROV1; 10 μM, IGROV1, Ovarian Cancer
  Growth percentage: 73.9%
IGROV1; [18]
  GI50: > 100 µM
  IC50: > 100 µM
IGROV1; Homo sapiens, IGROV-1, five-dose, IGROV1, read-out: LC50 (the source's name)
  CC50: > 100 µM
IGROV1; five-dose, IGROV1
  TGI: 100.0 µM
OVCAR-4; Homo sapiens, 10 μM, OVCAR-4, Ovarian Cancer, read-out: Growth percentage
  activity at 10 µM: 106%
OVCAR-4; [19]
  GI50: > 100 µM
  IC50: > 100 µM
OVCAR-4; Homo sapiens, five-dose, OVCAR-4, read-out: LC50 (the source's name)
  CC50: > 100 µM
OVCAR-4; five-dose, OVCAR-4
  TGI: 100.0 µM
OVCAR-8; Homo sapiens, 10 μM, OVCAR-8, Ovarian Cancer, read-out: Growth percentage
  activity at 10 µM: 46.1%
OVCAR-8; [20]
  GI50: > 100 µM
  IC50: > 100 µM
OVCAR-8; Homo sapiens, five-dose, OVCAR-8, read-out: LC50 (the source's name)
  CC50: > 100 µM
OVCAR-8; five-dose, OVCAR-8
  TGI: 100.0 µM
NCI/ADR-RES; Homo sapiens, 10 μM, Ovarian Cancer, read-out: Growth percentage
  activity at 10 µM: 112%
NCI/ADR-RES; Homo sapiens, five-dose
  GI50: > 100 µM
  IC50: > 100 µM
NCI/ADR-RES; [3]
  CC50: > 100 µM
NCI/ADR-RES; five-dose
  TGI: 100.0 µM
786−0; Homo sapiens, 10 μM, 786−0, Renal Cancer, read-out: Growth percentage
  activity at 10 µM: 74.3%
786−0; Homo sapiens, five-dose, 786−0
  GI50: > 100 µM
  IC50: > 100 µM
786−0; Homo sapiens, five-dose, 786−0, read-out: LC50 (the source's name)
  CC50: > 100 µM
786−0; five-dose, 786−0
  TGI: 100.0 µM
RXF 393
  activity at 10 µM: -8.1%
MCF7; Homo sapiens, MCF7, 10 μM, MCF7, Breast Cancer, read-out: Growth percentage
  activity at 10 µM: 6.5%
MCF7; Homo sapiens, five-dose, MCF7
  GI50: 0.4 µM
  IC50: 0.6 µM
MCF7; Homo sapiens, five-dose, MCF7, read-out: LC50 (the source's name)
  CC50: > 100 µM
MCF7; five-dose, MCF7
  TGI: 3.5 µM
[1]; HCT116
  Cell cycle arrest phase: G1 phase
[1]; HCT116 treated with IC50 concentration, DMSO 8.68%
  DNA Content G2/M Phase: 2.92%
[1]; HCT116 treated with IC50 concentration, DMSO 27.03%
  DNA Content S Phase: 23.23%
[1]; HCT116 treated with IC50 concentration, DMSO 64.29%
  DNA Content G0-G1 Phase: 73.85%
[2]; Homo sapiens, read-out: LC50
  CC50: 0.6 to 100 µM
[2]; Homo sapiens, read-out: Mean growth percentage
  activity at 10 µM: 49.6%
[2]; mean sensitivity across all cell lines in the panel
  Full-panel MG-MID: 70.3 µM
